Data on 1 compound can be found in PMC11175440, “Exploring hydrophilic 2,2-di(indol-3-yl)ethanamine derivatives against Leishmania infantum” (PLOS ONE, 2024).

Molecules are shown by their SMILES. Where “and” joins values, the source holds several entries; their conditions need not be identical. Identical values can stand only once. Entries after “also recorded” stand apart in the source; their conditions may differ. Bounds are passed on as bounds.

For data set [1], the system named is THP-1, DH82, HepG2, HaCaT and HPF cells. The arrangement: method as in PMID 34984300. Particulars: cited from earlier work.
Data set [2] concerns L. infantum MHOM/TN/80/IPT1 promastigotes. More on the design: method as in PMID 34984300. Particulars: read-out: IC50 against L. infantum promastigotes; cited from earlier work.
For data set [3], the system named is THP-1 cells. The arrangement: method as in PMID 34984300. Particulars: cited from earlier work.
In data set [4] the test system is L. infantum (MHOM/MA/67/ITMAP-263) axenic amastigotes. Put plainly: In vivo anti-amastigote activity in BALB/c mice infection model (limiting dilution parasite burden). Particulars: spleen, liver, bone marrow; URB1483 5 mg/kg/day IP in 60% PEG 400, 10 days; 5 mg/kg/day. As for the experimental part: The compound URB1483 was selected for the in vivo evaluation on a BALB/c mice infection model. Six- to seven-week-old BALB/c mice were purchased from Charles River Laboratories (Barcelona, Spain) or the I3S (Porto, Portugal) animal facility. Luciferase-expressing L. infantum (MHOM/MA/67/ITMAP-263) axenic amastigotes were cultured in complete cell-free medium MAA/20 [20] at 37°C with 5% CO2. Five-day-old cultures of amastigotes were washed twice with PBS and resuspended at a concentration of 1×10^9 parasites/Ml. A total of 17 mice were infected with 100 μL of parasite suspension containing 1×10^8 parasites. The injection was performed intra-venously (IV) in the tails of mice, and treatments started 21 days post-infection for 10 consecutive days. Formulation studies are reported in the Supporting Information (S1 Table in S1 File). […]
Mice well-being-assessment was checked every two days, in terms of weight control and the presence of stress signs. […] Spleen and liver were weighted, and bone marrow cells were counted with automatic cell counter EVE^TM (NanoEnTek, Seul, Korea). […] For bone marrow, the number of parasites was calculated per 10^5 cells using the formula: [(geometric mean of reciprocal titer from each triplicate/number of cells) × reciprocal fraction of the cells inoculated into the first well]. […]

Data set [5] can be described thus: Formulation (solubility and stability) study of URB1483. The class given is physicochemical. Particulars: for Solubility: 48-72 h at 37 °C. As for the experimental part:
Equivalence calculation between URB1483 concentration and injectable dose (mg/kg) […]
Considering an average mice weight of 25 g and an IP injectable volume of 100 μL, the following […]
correspondence can be considered:
[URB1483](mg/mL) = Dose (mg/kg) ∙ 0.025 (kg)
[URB1483](mM) = Dose (mg/kg) ∙0.025 (kg)
General procedure for the formulation study
To the indicated volume of the URB1483 stock solution in DMSO (25.0 mg/mL , 50.24 mM) were […]
added the appropriate volume or weight of excipient and the resulting mixture was heated at 37 °C […]
and sonicated for 10-20 min. Finally, distilled water was added to reach the final volume of 1 mL […]
(Table S1). The resulting formulation was ma intained at 37 °C under stirring for 48-72 h. At regular […]
time points, aliquots of the described formulations were sampled, centrifuged (8000 rpm, 10 min), […]
and two volumes of acetonitrile were added. After further centrifugation (8000 rpm, 10 min), the […]
resulted clear samples were analyzed by HPLC -ESI-MS for a percentage of the remaining compound.
URB1483 was considered soluble and stable in the formulation with more than 90% of the compoun d […]
Table S1 – Preliminary Formulation Study on URB1483[a]
Entry Final Dose Stock Solution URB1483 Volume Excipient Solubility[b]
2[c] 1 mg/kg 5 μL DMSO (95 μL) 🗶
3[c] 1 mg/kg 5 μL DMSO (195 μL) ✓
[a] DMSO = dimethylsulfoxide; PG = propylene glycol; PEG = polyethylene glycol; HPBC = 2-hydropropyl- […]
β-cyclodextrin. [b] URB1483 was considered soluble and stable with more than 90% of the compound […]
remaining unaltered after 48-72 h at 37 °C, by HPLC-ESI-MS analysis. [c] Instead of water, a physiological […]
solution (saline) was utilized.

Data set [6] deals with L. infantum intracellular amastigotes. The arrangement: method as in PMID 34984300. Particulars: compared with pentamidine; cited from earlier work.

A word on the IC50: it is the concentration needed to halve the response being measured. A word on the CC50: it is the concentration at which the toxic effect on the cells reaches its halfway point. In the case of `CCOC(=O)c1c(C(=O)OC)cn(CC(c2cn(C)c3ccccc23)c2cn(C)c3ccccc23)c1C` [URB1483], the “toxicity on mammalian cell lines” value in data set [1] was “did not affect the viability; also recorded: No toxicity”. The IC50 in data set [2] is 3.7 µM and 4 µM. Further, the CC50 in data set [3] was > 200 µM. Besides, the “selectivity index (SI)” value in data set [3] is “greater than 55”. The “effect on parasite burden (in vivo efficacy)” value in data set [4] is “did not significantly reduce parasite burden; also recorded: No in vivo efficacy; also recorded: could not reduce parasite burden; also recorded: ineffective”. Also, the water solubility entry in data set [5] is on record as “Poorly soluble in water; also recorded: very poor water solubility; also recorded: poor water solubility”. Also, the maximum injectable concentration in data set [5] (60% PEG 400 in water, 1.25 mg/mL, mouse weight 25 g, injection volume 100 μL) is reported as 5 mg/kg. The Solubility entry was “✓ (URB1483 was considered soluble and stable with more than 90% of the compound remaining unaltered after 48-72 h at 37 °C, by HPLC-ESI-MS analysis)” in data set [5] (entry 3: final dose 1 mg/kg, DMSO (195 μL), saline); “✓ (URB1483 was considered soluble and stable with more than 90% of the compound remaining unaltered after 48-72 h at 37 °C, by HPLC-ESI-MS analysis)” in data set [5] (entry 6: final dose 1 mg/kg, PG (600 mg), water); “✓ (URB1483 was considered soluble and stable with more than 90% of the compound remaining unaltered after 48-72 h at 37 °C, by HPLC-ESI-MS analysis)” in data set [5] (entry 9: final dose 1 mg/kg, PEG 400 (400 mg), water); “✓ (URB1483 was considered soluble and stable with more than 90% of the compound remaining unaltered after 48-72 h at 37 °C, by HPLC-ESI-MS analysis)” in data set [5] (entry 11: final dose 1 mg/kg, PEG 400 (500 mg), water); “✓ (URB1483 was considered soluble and stable with more than 90% of the compound remaining unaltered after 48-72 h at 37 °C, by HPLC-ESI-MS analysis)” in data set [5] (entry 12: final dose 2 mg/kg, PEG 400 (500 mg), water); “✓ (URB1483 was considered soluble and stable with more than 90% of the compound remaining unaltered after 48-72 h at 37 °C, by HPLC-ESI-MS analysis)” in data set [5] (entry 14: final dose 1 mg/kg, PEG 400 (600 mg), water). For the same compound, the Solubility entry in data set [5] (entry 15: final dose 2 mg/kg, PEG 400 (600 mg), water) was “✓ (URB1483 was considered soluble and stable with more than 90% of the compound remaining unaltered after 48-72 h at 37 °C, by HPLC-ESI-MS analysis)”; in data set [5] (entry 16: final dose 5 mg/kg, PEG 400 (600 mg), water), “✓ (URB1483 was considered soluble and stable with more than 90% of the compound remaining unaltered after 48-72 h at 37 °C, by HPLC-ESI-MS analysis)”; in data set [5] (entry 19: final dose 1 mg/kg, HPBC (400 mg), water), “✓ (URB1483 was considered soluble and stable with more than 90% of the compound remaining unaltered after 48-72 h at 37 °C, by HPLC-ESI-MS analysis)”. For the same compound, in data set [6], the “efficacy on in vitro infection model” value is “comparable to that of the commercial drug pentamidine”.
